Assay results taken from patent publication US5965607A, “Substituted Benzo[1,4]dioxines as antiobesity agents” (American Home Products Corporation, priority 1997, dated 1999).

Tests used:
[1] = target: human β3 adrenergic receptors (Homo sapiens, UniProt P13945); assay: cAMP elevation in CHO cells transfected with human β3 adrenergic receptor; format: cell-based; conditions: 10 min, CHO cells expressing human β3 receptor, compound at 10 nM, 37° C., relative to isoproterenol at 10 μM; for activation at 0.01 µM: read-out: β3, % of isoproterenol activity (increase in cAMP)
human β3 adrenergic receptors, sequence (P13945 whole entry): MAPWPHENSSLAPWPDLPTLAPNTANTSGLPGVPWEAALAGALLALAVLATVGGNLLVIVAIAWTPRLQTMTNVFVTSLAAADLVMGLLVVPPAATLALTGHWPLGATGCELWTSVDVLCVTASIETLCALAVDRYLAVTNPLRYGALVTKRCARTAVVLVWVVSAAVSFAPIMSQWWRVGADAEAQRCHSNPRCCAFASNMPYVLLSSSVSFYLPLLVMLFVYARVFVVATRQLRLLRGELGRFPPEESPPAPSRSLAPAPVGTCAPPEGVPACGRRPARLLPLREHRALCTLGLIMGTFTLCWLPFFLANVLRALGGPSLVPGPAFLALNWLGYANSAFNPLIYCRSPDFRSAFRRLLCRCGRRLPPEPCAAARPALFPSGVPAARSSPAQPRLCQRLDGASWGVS
Description: (§1) The activity of the test compounds on human β-adrenergic receptors was determined with Chinese hamster ovary (CHO) cells transfected with human β3, β2, or β1 adrenergic receptors. The preparation of these cells has been described in Emorine, L. J., Marullo, S., Briend-Sutren, M., Patey, G., Tate, K., Delavier-Klutchko, C., Strosberg, A. D. Molecular Characterization of the Human Beta 3-AdrenergicReceptor Science 1989,245(8), 1118-1121 and in Muzzin, P., Revelli, J.-P., Kuhne, F., Gocayne, J. D., McCombie, W. R., Venter, J. C., Giacobino, J.- P., Fraser, C. M. An Adipose Tissue-Specific Beta 3-Adrenergic Receptor. Molecular Cloning and Down-Regulation in Obesity J. Biol. Chem. 1991, 226, 24053-24058. Agonist activity is indicated by increased cAMP levels in the CHO cells. Selectivity of the test compounds for the β3 receptor was assessed by comparison with results in β2 and β1 adrenergic receptor transfected cells.
(§2) 1). Chinese hamster ovary (CHO) cells transfected with human β3, β2, or β1 adrenergic receptors were used in the assay.
(§3) 2). Cells were grown to confluent conditions in 24 well plates.
(§4) 3). Drugs were dissolved in DMSO at a concentration of 10 μM.
(§5) 4). Cells were incubated with drug at 10 nM concentration for 10 min at 37° C. Isoproterenol (Standard 1) was used as the standard compound and assayed at 10 μM which gives a maximal cAMP elevation in all 3 cell types.
(§6) 5). Cell cAMP concentrations were assayed using a scintillation proximity assay from Amersham Corp (Chicago, Ill.).
(§7) 6). Activities for the test compounds are expressed as a percentage of the isoproterenol response.
(§8) a Human β receptors expressed in Chinese hamster ovary cells, compounds tested at 10 nM, results expressed as % of isoproterenol activity (increase in cAMP) at 10 μM.

[2] = system: plasma free fatty acids; assay: Effects on free fatty acid levels in rats; format: in vivo, rat; conditions: for Rat Free Fatty Acid, elevation of plasma free fatty acids as % of Standard 2 response: 0.1 mg/kg via gavage, blood collected 50 min later, relative to Standard 2 at 0.1 mg/kg
Description: Rats respond to a single oral dose of β3 agonist by increasing plasma free fatty acids (FFA) in response to β3 receptor stimulation on the plasma membrane of the fat cell. 5-{2-[2-(3-Chloro-phenyl)-2-hydroxy-ethylamino]-propyl}-benzo[1,3]dioxole- 2,2-dicarboxylic acid diisopropyl ester (Standard 2) was used as a standard compound. All test compounds were dosed at 0.1 mg/kg and compared to the response by Standard 2.
1). Drugs were dissolved in DMSO at 10 mg/mL.
2). Twenty μl of the DMSO-drug solution was added to 10 mL methyl cellulose:Tween-80 (0.5%:0.1%) for a final concentration of 20 μg/mL.
3). Methyl cellulose:tween-80 drug suspension was given via gavage (1 mL/200g body weight; or 0.1 mg/kg) to rats and blood was collected 50 min later.
4). Plasma was analyzed for free fatty acids using a kit supplied by Biochemical Diagnostics Inc. (Brentwood, N.Y.).
5). Drug response was calculated from the formula below. [formula] Effects on Hyperglycemia in Mice
b Elevation of plasma free fatty acids in rats, compounds tested at 0.1 mg/kg, results expressed as % of 5-{2-[2-(3-chloro-phenyl)-2-hydroxy-ethylamino]-propyl}-benzo[1,3]dioxole- 2,2-dicarboxylic acid diisopropyl ester response (78% increase) at 0.1 mg/kg.

[3] = target: human β2 adrenergic receptors (Homo sapiens, UniProt P07550); assay: cAMP elevation in CHO cells transfected with human β2 adrenergic receptor; format: cell-based; conditions: 10 min, CHO cells expressing human β2 receptor, compound at 10 nM, 37° C., relative to isoproterenol at 10 μM; for activation at 0.01 µM: read-out: β2, % of isoproterenol activity (increase in cAMP)
human β2 adrenergic receptors, sequence (P07550 whole entry): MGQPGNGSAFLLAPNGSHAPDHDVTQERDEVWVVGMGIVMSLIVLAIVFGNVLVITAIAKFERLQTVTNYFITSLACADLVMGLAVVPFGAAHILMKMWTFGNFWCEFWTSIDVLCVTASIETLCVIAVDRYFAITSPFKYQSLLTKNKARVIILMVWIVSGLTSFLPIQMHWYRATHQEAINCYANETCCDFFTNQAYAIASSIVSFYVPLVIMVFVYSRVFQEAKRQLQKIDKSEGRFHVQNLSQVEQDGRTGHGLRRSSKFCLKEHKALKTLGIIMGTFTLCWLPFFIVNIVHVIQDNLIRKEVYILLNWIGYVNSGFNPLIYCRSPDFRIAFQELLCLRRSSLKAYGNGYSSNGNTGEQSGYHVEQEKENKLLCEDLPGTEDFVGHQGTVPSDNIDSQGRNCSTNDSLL
Description: as §1, §2, §3, §4, §5, §6, §7, §8

Row | SMILES | activation at 0.01 µM [1] [%] | Rat Free Fatty Acid, elevation of plasma free fatty acids as % of Standard 2 response [2] [%] | activation at 0.01 µM [3] [%] | β3, % of isoproterenol activity (increase in cAMP) [1] [%] | β2, % of isoproterenol activity (increase in cAMP) [3] [%] | increase of plasma free fatty acids in rats ([2]; 0.1 mg/kg, response of the standard itself) [%]
1 | C[C@H](Cc1ccc2c(c1)OC(C(=O)OC1CCCCC1)C(C(=O)OC1CCCCC1)O2)NC[C@H](O)c1cccc(Cl)c1 (stereo partly drawn) [Example 9, (2,3-cis)-6-{(2R)-2-[(2R)-2-(3-Chloro-phenyl)-2-hydroxy-ethylamino]-propyl}-2,3-dihydro-benzo[1,4]dioxine-2,3-dicarboxylic acid dicyclohexyl ester] | 3 | 3 | 1 |  |  | 
2 | CC(C)OC(=O)C1Oc2ccc(C[C@@H](C)NC[C@H](O)c3cccc(Cl)c3)cc2OC1C(=O)OC(C)C (some centres unmarked) [Example 4] | 4 | 32 | 9 |  |  | 
3 | C[C@H](Cc1ccc2c(c1)OC(C(=O)OC1CCCC1)C(C(=O)OC1CCCC1)O2)NC[C@H](O)c1cccc(Cl)c1 (stereo partly drawn) [Example 10, (2,3-cis)-6-{(2R)-2-[(2R)-2-(3-Chloro-phenyl)-2-hydroxy-ethylamino]-propyl}-2,3-dihydro-benzo[1,4]dioxine-2,3-dicarboxylic acid dicyclopentyl ester] | 3 | 20 | 4 |  |  | 
4 | CCCCCCCCOC(=O)C1Oc2ccc(C[C@@H](C)NC[C@H](O)c3cccc(Cl)c3)cc2OC1C(=O)OCCCCCCCC (stereo partly drawn) [Example 11, (2,3-cis)-6-{(2R)-2-[(2R)-2-(3-Chloro-phenyl)-2-hydroxy-ethylamino]-propyl}-2,3-dihydro-benzo[1,4]dioxine-2,3-dicarboxylic acid dioctyl ester] | 97 | 5 | 38 |  |  | 
5 | CCOCCOC(=O)C1Oc2ccc(C[C@@H](C)NC[C@H](O)c3cccc(Cl)c3)cc2OC1C(=O)OCCOCC (relative stereo) [Example 7, (2,3-cis)-6-{(2R)-2-[(2R)-2-(3-Chloro-phenyl)-2-hydroxy-ethylamino]-propyl}-2,3-dihydro-benzo[1,4]dioxine-2,3-dicarboxylic acid bis-(2-ethoxy-ethyl)ester] |  | 7 |  | 40 | 33 | 
6 | C[C@H](Cc1ccc2c(c1)OC(C(=O)OCc1ccccc1)C(C(=O)OCc1ccccc1)O2)NC[C@H](O)c1cccc(Cl)c1 (stereo partly drawn) [Example 12, (2,3-cis)-6-{(2R)-2-[(2R)-2-(3-Chloro-phenyl)-2-hydroxy-ethylamino]-propyl}-2,3-dihydro-benzo[1,4]dioxine-2,3-dicarboxylic acid dibenzyl ester] | 27 | 11 | 11 |  |  | 
7 | CCOC(=O)C1Oc2ccc(C[C@@H](C)NC[C@H](O)c3cccc(Cl)c3)cc2OC1C(=O)OCC (stereo partly drawn) [Example 8, (2,3-cis)-6-{(2R)-2-[(2R)-2-(3-Chloro-phenyl)-2-hydroxy-ethylamino]-propyl}-2,3-dihydro-benzo[1,4]dioxine-2,3-dicarboxylic acid diethyl ester] |  | 19 |  |  |  | 
8 | CCCCOC(=O)C1Oc2ccc(C[C@@H](C)NC[C@H](O)c3cccc(Cl)c3)cc2OC1C(=O)OCCCC (some centres unmarked) [Example 6] | 51 | 0 | 16 |  |  | 
9 | CC(C)OC(=O)C1Oc2cc(C[C@@H](C)NC[C@H](O)c3cccc(Cl)c3)ccc2OC1C(=O)O (stereo partly drawn) [Example 5, (2,3-cis)-6-{(2R)-2-[(2R)-2-(3-Chloro-phenyl)-2-hydroxy-ethylamino]-propyl}-2,3-dihydro-benzo[1,4]dioxine-2,3-dicarboxylic acid 3-isopropyl ester] | 50 | 6 | 11 |  |  | 
10 | CC(Cc1ccc2c(c1)OC(C(=O)OC(C)C)(C(=O)OC(C)C)O2)NCC(O)c1cccc(Cl)c1 (centres unmarked) [5-{2-[2-(3-Chloro-phenyl)-2-hydroxy-ethylamino]-propyl}-benzo[1,3]dioxole-2,2-dicarboxylic acid diisopropyl ester, reference compound] |  |  |  |  |  | 78
